Measured values: paper PMC5103216, “Novel Agonist Bioisosteres and Common Structure-Activity Relationships for The Orphan G Protein-Coupled Receptor GPR139” (Scientific Reports, 2016)

Assays:
Type in all cases: cell-based
[1] = target: T1, M1 receptor (Homo sapiens, UniProt P11229); assay: IP-One HTRF assay in CHO-M1 (control)
T1 construct: host or cells: CHO-k1
T1 sequence (P11229 1-460): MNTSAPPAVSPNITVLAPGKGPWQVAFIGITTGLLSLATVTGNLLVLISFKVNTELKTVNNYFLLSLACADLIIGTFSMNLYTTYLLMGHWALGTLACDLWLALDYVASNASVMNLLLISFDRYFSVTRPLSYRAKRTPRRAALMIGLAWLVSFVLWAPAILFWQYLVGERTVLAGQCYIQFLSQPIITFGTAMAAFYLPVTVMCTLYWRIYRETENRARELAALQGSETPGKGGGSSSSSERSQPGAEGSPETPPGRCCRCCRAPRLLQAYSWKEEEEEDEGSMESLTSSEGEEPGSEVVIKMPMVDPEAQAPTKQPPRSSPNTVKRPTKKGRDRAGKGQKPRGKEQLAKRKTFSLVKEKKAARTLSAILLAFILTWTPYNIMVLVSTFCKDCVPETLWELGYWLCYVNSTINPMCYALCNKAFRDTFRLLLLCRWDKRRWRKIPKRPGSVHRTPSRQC
Method: (§1) Figure 3 IP-One HTRF® assay measuring Gq activation. Concentration-response curves of 1a, 7c (racemic), L-Trp, L-Phe, DL43, DL126, DL24, DL22, DL132 and DL130 on (A) CHO-139 and (B) CHO-M1 in the IP-One assay (final conc of LiCl = 20 mM). The dotted line represent the [IP1] response from (A) 10 μM 1a and (B) 1 μM carbachol, which is an agonist for the muscarinic acethylcholine receptor M1 that activates the Gq coupled pathway. The graphs are means ± SEM based on three independent experiments performed in triplicates.
(§2) The IP-One assay was performed as described in the work by Thomsen et al.[28], with few modifications. Breifly, CHO-139 and CHO-M1 were detached and re-suspended to a concentration of 10 million cells/mL. 5 μL 2x concentrated compound (+40 mM LiCl) and 5 μL cell suspension (50,000 cells/well) was mixed. The plate was sealed and incubated at 37 °C for 1 hour. Next, 10 μL detection reagents (lysis buffer containing 2.5% Eu^3+-anti-IP1 antibody and 2.5% IP1-d2) was added and the plate was incubated for 1 hour at room temperature. The plate was read on an Envision (PerkinElmer, Waltham, MA, USA). The time resolved-fluorescence resonance energy transfer (TR-FRET) 665 nm/615 nm ratio, which is inversely proportional to the inositol monophosphate (IP1) accumulation, was used to determine the concentration of the IP1 response.

[2] = target: T2, GPR139 (Homo sapiens, UniProt Q6DWJ6); assay: IP-One HTRF assay measuring Gq activation in CHO-139; settings: IP-One HTRF assay, CHO-139, 20 mM LiCl
T2 sequence (Q6DWJ6 1-353): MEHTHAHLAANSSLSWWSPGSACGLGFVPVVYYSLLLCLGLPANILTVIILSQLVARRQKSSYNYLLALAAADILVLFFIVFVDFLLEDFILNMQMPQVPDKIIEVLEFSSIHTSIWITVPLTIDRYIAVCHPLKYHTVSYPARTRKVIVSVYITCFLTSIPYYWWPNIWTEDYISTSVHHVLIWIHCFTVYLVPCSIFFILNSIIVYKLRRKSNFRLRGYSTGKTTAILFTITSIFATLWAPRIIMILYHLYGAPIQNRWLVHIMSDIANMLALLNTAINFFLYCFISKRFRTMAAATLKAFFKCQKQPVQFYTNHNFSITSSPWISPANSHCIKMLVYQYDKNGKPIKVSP
Method: as §1, §2

[3] = target: T2, GPR139; assay: Fluo-4 Ca2+-assay in CHO-k1 cells stably expressing GPR139 (CHO-GPR139); settings: for EC50: CHO-GPR139, mean of at least three experiments; for Emax: CHO-K1, relative to 1a
Method: Compound 1a[11] was kindly provided by H. Lundbeck A/S, Denmark. Compound 7c (Enamine no: Z31449867) was tested as a racemate, as the (S)-form described by Janssen et al. was not commercially available. All compounds were dissolved to 20 mM in DMSO (Sigma, D2650) and subsequently diluted in a HEPES buffer (HBSS (Invitrogen, 14025) supplemented with 20 mM HEPES + 1 mM MgCl2 + 1 mM CaCl2, pH = 7.4) to a final concentration 0.5% DMSO in the assay. The DMSO level was kept constant for all concentrations of all compounds. DMSO was confirmed not to have any activity by itself at this concentration. L-Tryptophan (T0254) and L-Phenylalanine (P2126) were obtained from Sigma-Aldrich and dissolved directly in buffer.
All compounds were tested on a CHO-k1 cell line stably expressing GPR139 (CHO-GPR139) kindly provided by H. Lundbeck A/S, Denmark, and also on a CHO-k1 cell line stably expressing the M1 receptor (CHO-M1) (The Missouri S&T cDNA Resource Center, #CEM100TN00) to check for specificity. The CHO-GPR139 was grown in Dulbecco’s modified eagle medium (DMEM) F12-Kaighn’s (Gibco, 21127) supplemented with 10% dialysed fetal bovine serum (Gibco, 26400, United States origin), 1% GlutaMAX^TM-I (100X) (Gibco, 35050), and 100 units/mL penicillin and 100 μg/mL streptomycin (Gibco, 15140) and 1.0 mg/mL geneticin (Invitrogen, 1181103). CHO-M1 was grown in Ham’s F12 (Gibco, 21765) supplemented with 10% fetal bovine serum (Gibco, 10270, South America origin) +100 units/mL penicillin and 100 μg/mL streptomycin (Invitrogen, 15140–122) and 0,25 mg/mL geneticin (Life Technologies, 11811–031). Compound 1a and carbamoylcholine chloride (Sigma-Aldrich, C4382) were used as positive controls in the two cell lines, respectively.
30.000 cells/well were plated in black 96-well plates with flat clear bottoms (Corning, Falcon, 353219) and incubated overnight. The Fluo-4 dye loading solution (Invitrogen, F36206) was prepared according to the manufacturer’s instructions by dissolving it in HEPES buffer supplemented with 2.5 mM probenecid. 50 μL dye loading solution was added to each well. Cells were incubated with the Fluo-4 dye for 60 min at 37 °C, then washed with 100 μL HEPES buffer. 100 μL HEPES buffer supplemented with 2.5 mM probenecid was then added to each well and incubated in 10 minutes at 37 °C before measurement. 33 μL of the test compounds (4x concentrated) were added automatically after baseline measurements. Intracellular calcium change was recorded on a NOVOstar instrument (BMG Labtech) at 37 °C with an excitation filter of 485 nm and an emission filters 520 nm. Data originate from three independent experiments in triplicates.

In the case of `O=C(CN1CCCc2ccccc21)NNC(=O)c1ccc2c(c1)OCO2` [DL22], the “IP1 response in CHO-M1 cells” value [1] is reported as “no response is seen in CHO-M1 cells”, the EC50 [2] is reported as 4180 nM and the EC50 [3] is reported as 442 nM. It also gave an Emax [3] of 105%.

In the case of `COc1cc(OC)cc(C(=O)NNC(=O)C2CCCc3ccccc32)c1` (stereo not drawn) [DL24], the “IP1 response in CHO-M1 cells” value [1] is reported as “no response is seen in CHO-M1 cells”, the EC50 [2] is reported as 750 nM and the EC50 [3] is reported as 431 nM. It also gave an Emax [3] of 109%.

`CCn1c(C)nc2cc(C(=O)NNC(=O)Cc3cccc4ccccc34)ccc21` [DL43] was tested, and the “IP1 response in CHO-M1 cells” value [1] was “no response is seen in CHO-M1 cells”, the EC50 [2] was 9570 nM and the “fold lower potency than 1a” value [3] was ~ 10 fold. The EC50 [3] was 364 nM and the Emax [3] was 97%.

In the case of `O=C(Cc1cccc2ccccc12)NNC(=O)c1ccc2c(c1)OCO2` [DL126], the “IP1 response in CHO-M1 cells” value [1] is reported as “no response is seen in CHO-M1 cells”, the EC50 [2] is reported as 5620 nM and the “fold lower potency than 1a” value [3] is reported as ~ 10 fold. The EC50 [3] was 411 nM and the Emax [3] was 91%.

With `O=C(CNC(=O)c1ccc2c(c1)OCO2)NC1CCSc2ccc(F)cc21` (stereo not drawn) [DL130] the “IP1 response in CHO-M1 cells” value [1] was “no response is seen in CHO-M1 cells”, the EC50 [2] was 4980 nM and the EC50 [3] was 888 nM. It also gave an Emax [3] of 89%.

`O=C(NCC(=O)N1CCCC1c1ccccc1)c1ccc2c(c1)OCO2` (stereo not drawn) [DL132] was tested, and the “IP1 response in CHO-M1 cells” value [1] was “no response is seen in CHO-M1 cells”, the EC50 [2] was 4160 nM and the EC50 [3] was 505 nM. The Emax [3] was 94%.
